One block for each compound: values may come before it.
Experiments:
[1] = Excitation and emission spectra and time resolved fluorescence decays of Europium chelates; format: physicochemical
Description: Below are some typical excitation and emission spectra, alone with time resolved fluorescence decays for Europium chelates of this invention. All spectra and decay measurements were recorded on an Amino Bowman Spectrophotometer (model AB2), with a time resolution of 50 us.
The characteristic narrow emission bands of europium is observed at around 614 nm. The excitation spectrum for the 614 nm emission band peaks at 355 nm, and at least 50% of this intensity is achieved with excitation wavelengths up to 375 nm.
As with the vast majority of fluorescence compounds, the sensitiser group itself has a very short fluorescence lifetime. […] However, as is clearly shown by the decay traces the fluorescence of the Eu^3+ incorporated in the chelate (at 614 nm) has a characteristically long lifetime that enables a time-resolved discrimination between the Eu-containing chelate and other fluorescent compounds. The Eu fluorescence lifetime was fitted with a single exponential fit giving a lifetime of 633 us.

Cy5-labelled peptides = test: Time resolved fluorescence resonance energy transfer from Cin-DTPA-SA to Cy5-labelled peptide; conditions: 100 nM Cin-DTPA-SA; saturating concentrations of Cy5-peptide; λex=340 nm
Description: Cin-DTPA-SA (100 nM) in PBS/Tween was mixed with increasing concentrations (0.1-1000 nM) of N-Succ-(Cy5-NH-K)AERAQAGVVNASSRLAE(K-NH-Biotin)-CO2H (where underlined letters refer to single amino acid codes) prepared by reaction of the corresponding unlabelled peptide with the N-hydroxysuccinimide esters of biotin and Cy5 (Amersham). After 30 minutes incubation at room temperature, the fluorescence intensity of the sample (λex=340 nm, λem=615 nm or 664 nm) was determined using a time gate of 400 us, 400 us read time, 1000 us cycle time for europium (615 nm) fluorescence and a time gate of 70 us, 200 us read time, 1000 us cycle time for Cy5 (664 nm) fluorescence. The 615 nm fluorescence decreased in a peptide concentration dependent manner by 62-67% at saturating concentrations of Cy5-peptide whilst the 664 nm fluorescence increased in a saturable manner from 1000 counts/second to 8,000 counts/second at saturating concentration of peptide. […] In addition, titration of 10 nM Cin-DTPA-SA with biotinylated allophycocyanin (Bt-APC, 0.5-500 nM, Sigma) in PBS/Tween was associated with an increase in the fluorescence signal at 664 nm from 1000 counts/second to 3,500 counts/second at 500 nM Bt-APC, again indicating energy transfer from the chelate to the acceptor.
The Eu^3+ fluorescence decreases and the Cy5 fluorescence increases as the Cy5-labelled peptide is titrated in. […]

[2] = Time resolved fluorescence signal of streptavidin conjugate (Wallac Victor); format: physicochemical; conditions: 50 nM in 100 uL; 400 us delay, 400 us read, cycle time 1000 us
Description: The reaction mixtures (549 ul) were then desalted into phosphate buffered saline containing 0.05% Tween 20 (PBS/Tween, Sigma) and 500 ul fractions were collected and assayed for protein content (Coomassie Blue Reagent, Biorad). The concentration of the pooled fractions (2 ml, 14 uM) was determined by Coomassie staining using streptavidin as a standard. […] 50 nM Cin-DTPA-SA gave 10,000 counts per second in 100 uL using these conditions. Improved labelling conditions yielding brighter conjugates, were obtained by freshly dissolving the Cin-DTPA-APA-chlorotriazine in 100% DMSO, increasing the pH of the reaction mixture to 9.0 in Bicarbonate buffer, and increasing the reaction time to approximately 16 hours at 4° C.

fluorescence lifetime of the chromophore ([1]; at 421 nm, time resolution 50 us): too short to be reliably detected
Eu fluorescence lifetime ([1]; at 614 nm, single exponential fit): 633 us
emission bands of europium ([1]; in the presence of Eu^3+): around 614 nm
excitation spectrum peak for the 614 nm emission band ([1]; in the presence of Eu^3+): 355 nm
excitation wavelengths at which at least 50% of peak intensity is achieved ([1]; in the presence of Eu^3+, 614 nm emission): up to 375 nm
Compound: CCn1nc(C(=O)NCCNC(=O)CN(CCN(CCN(CC(=O)O)CC(=O)O)CC(=O)O)CC(=O)O)c(=O)c2cc3c(cc21)OCO3 [Cinoxacin-DTPA]

Compound: Cin-DTPA-SA: streptavidin labelled with Cinoxacin-DTPA-APA-chlorotriazene (D5) and loaded with Eu^3+
decrease of 615 nm fluorescence (Cy5-labelled peptides): 62-67%
time resolved fluorescence signal [2]: 10,000 counts per second

decay of the chromophore ([1]; at 430 nm, in the presence of Eu^3+): too fast for detection
Compound: Cinoxacin-DTPA-Cinoxacin
